# Reference: patent US20260070945A1, “MACROCYCLIC IMMUNOMODULATORS” (Bristol-Myers Squibb Company, priority 2022, published 2026)
# *1 amine or outer side, *2 acyl side, *3 side chain or, on linkers, in order; H or OH if unused. Where a SMILES comes first, the peptide text is derived from it. Bridges are numbered along the chain shown (N, C = ends). [ ]: non-standard residue; d: D form. The star is where a group is joined. ξ: configuration not given here. Phe(3-CF3) = N[C@@H](Cc1cccc(C(F)(F)F)c1)C(=O)O; Phe(4-CF3) = N[C@@H](Cc1ccc(C(F)(F)F)cc1)C(=O)O; Phe(4-COOH) = N[C@@H](Cc1ccc(C(=O)O)cc1)C(=O)O; d(γGlu) = O=C(O)[C@@H](CCC(=O)[*:2])N[*:1]; Bip = N[C@@H](Cc1ccc(-c2ccccc2)cc1)C(=O)O; NH(CH2)14COOH = O=C(O)CCCCCCCCCCCCCCN*; Phe(3-Me) = Cc1cccc(C[C@H](N)C(=O)O)c1; γGlu = O=C(O)[C@H](CCC(=O)[*:2])N[*:1]; NH(CH2)12COOH = O=C(O)CCCCCCCCCCCCN*; Val(3-OH) = CC(C)(O)[C@H](N)C(=O)O; 4Pal = N[C@@H](Cc1ccncc1)C(=O)O; Cha = N[C@@H](CC1CCCCC1)C(=O)O; Ile(3ξ) = CCC(C)[C@H](N)C(=O)O; Thr(3ξ) = CC(O)[C@H](N)C(=O)O; Carboxymethyl = O=C(O)C*; NMeA = CN[C@@H](C)C(=O)O; Orn = NCCC[C@H](N)C(=O)O; Aun = NCCCCCCCCCCC(=O)O; Dab = NCC[C@H](N)C(=O)O; Dap = NC[C@H](N)C(=O)O; AEEA = NCCOCCOCC(=O)O
# Target: T1, PD-1/PD-L1 interaction (PE-labeled human PD-L1-Ig binding to Jurkat cell line over-expressing human PD-1) (Homo sapiens, UniProt Q15116)
# T1 construct: expressed in transfected cells; host or cells: Jurkat
# T1 sequence (Q15116 25-288): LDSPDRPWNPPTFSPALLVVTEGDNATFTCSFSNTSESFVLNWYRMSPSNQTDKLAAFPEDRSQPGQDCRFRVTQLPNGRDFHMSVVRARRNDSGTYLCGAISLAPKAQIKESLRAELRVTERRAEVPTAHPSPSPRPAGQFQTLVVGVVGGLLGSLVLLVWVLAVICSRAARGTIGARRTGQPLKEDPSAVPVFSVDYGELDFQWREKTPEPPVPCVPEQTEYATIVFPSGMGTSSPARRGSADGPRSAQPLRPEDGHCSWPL
# Assay: Jurkat-PD-1 Cell Binding High-Content Screening Assay (CBA)
# Conditions: Jurkat-hPD-1 cells, PE-labeled PD-L1-Ig 20 nM final; read-out: Jurkat HPD1 PDL1 IC50
# Procedure, shortened: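 Cells 8×10^3/well, DMEM + 10% FCS; cpd 2 h, 37 °C; PE–PD-L1-Ig 20 nM final, 1 h; PFA fix + Hoechst 33342, 3× dPBS wash; high-content imager.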
row,Structure (SMILES),IC50
1,CC(C)C[C@H]1NC(=O)[C@H](C)N(C)C(=O)[C@H](CCC(N)=O)NC(=O)[C@H](Cc2ccc(-c3ccccc3)cc2)NC(=O)[C@H](Cc2ccc(C(=O)O)cc2)NC(=O)[C@H](Cc2cccc(C(F)(F)F)c2)NC(=O)[C@H](CC(=O)O)NC(=O)[C@H](Cc2ccc(OCC(=O)O)cc2)NC(=O)[C@H](Cc2ccc(C(=O)O)cc2)NC(=O)CSC[C@@H](C(=O)N[C@@H](CCN)C(=O)NCCOCCOCC(=O)N[C@@H](CCC(=O)NCCOCCOCC(=O)NCCCCCCCCCCCCC(=O)O)C(=O)O)NC(=O)[C@H](CC(=O)O)NC(=O)[C@H](C(C)(C)O)NC(=O)[C@H](CC2CCCCC2)NC(=O)[C@H](CCN)NC1=O [Example 1182] ({CH2CO}-[Phe(4-COOH)]Y(Carboxymethyl)D[Phe(3-CF3)][Phe(4-COOH)][Bip]Q[NMeA][dL][Dab][Cha][Val(3-OH)]DC[Dab][AEEA][γGlu][AEEA]-{NH(CH2)12COOH}; thioether N-14),93 nM
2,Cc1cccc(C[C@@H]2NC(=O)[C@H](CC(=O)O)NC(=O)[C@H](Cc3ccncc3)NC(=O)[C@H](Cc3ccc(OCC(=O)O)cc3)NC(=O)CSC[C@@H](C(=O)N[C@@H](CCCN)C(=O)NCCOCCOCC(=O)NCCCCCCCCCCC(=O)O)NC(=O)[C@H]([C@@H](C)O)NC(=O)[C@H](C(C)C)NC(=O)[C@H](CC3CCCCC3)NC(=O)[C@H](CC(N)=O)NC(=O)[C@@H](CC(C)C)NC(=O)[C@H](C)N(C)C(=O)[C@H](Cc3ccc(OCC(=O)O)cc3)NC(=O)[C@H](Cc3ccc(-c4ccccc4)cc3)NC(=O)[C@H](Cc3ccc(OCC(=O)O)cc3)NC2=O)c1 [Example 1358] ({CH2CO}-Y(Carboxymethyl)[4Pal]D[Phe(3-Me)]Y(Carboxymethyl)[Bip]Y(Carboxymethyl)[NMeA][dL]N[Cha]VTC[Orn][AEEA][Aun]-OH; thioether N-14),45.6 nM

# The next lines start with the values.
row,IC50,Structure (SMILES)
1,18.6 nM,CC[C@H](C)[C@@H]1NC(=O)[C@H](Cc2ccc(-c3ccccc3)cc2)NC(=O)[C@H](CC(C)C)NC(=O)[C@H](Cc2c[nH]c3ccccc23)NC(=O)[C@H](CC(=O)O)NC(=O)[C@H](Cc2ccc(C(=O)O)cc2)NC(=O)[C@H](Cc2ccc(OCC(=O)O)cc2)NC(=O)CSC[C@@H](C(=O)N[C@@H](CCCNC(=N)N)C(=O)NCCOCCOCC(=O)NCCCCCCCCCCC(=O)O)NC(=O)[C@H](CO)NC(=O)[C@H](C(C)C)NC(=O)[C@H](CC2CCCCC2)NC(=O)[C@H](CCN)NC(=O)[C@@H](CC(C)C)NC(=O)[C@H](C)N(C)C1=O [Example 1080] ({CH2CO}-Y(Carboxymethyl)[Phe(4-COOH)]DWL[Bip]I[NMeA][dL][Dab][Cha]VSCR[AEEA][Aun]-OH; thioether N-14)
2,15 nM,CCC(C)[C@@H]1NC(=O)[C@H](Cc2ccc(-c3ccccc3)cc2)NC(=O)[C@H](CC(C)C)NC(=O)[C@H](Cc2c[nH]c3ccccc23)NC(=O)[C@H](CC(=O)O)NC(=O)[C@H](Cc2ccc(C(=O)O)cc2)NC(=O)[C@H](Cc2ccc(OCC(=O)O)cc2)NC(=O)CSC[C@@H](C(=O)NCCCCCCCCCCC(=O)O)NC(=O)[C@H](CCCNC(=N)N)NC(=O)[C@H](C(C)C)NC(=O)[C@H](CC2CCCCC2)NC(=O)[C@H](CCN)NC(=O)[C@@H](CC(C)C)NC(=O)[C@H](C)N(C)C1=O (stereo partly drawn) [Example 2237] ({CH2CO}-Y(Carboxymethyl)[Phe(4-COOH)]DWL[Bip][Ile(3ξ)][NMeA][dL][Dab][Cha]VRC[Aun]-OH; thioether N-14)
3,27.9 nM,Cc1cccc(C[C@@H]2NC(=O)[C@H](CC(=O)O)NC(=O)[C@H](Cc3ccc(OCC(=O)O)cc3)NC(=O)[C@H](C(C)O)NC(=O)CSC[C@@H](C(=O)N[C@@H](CCN)C(=O)NCCCCCCCCCCC(=O)O)NC(=O)[C@H](C(C)O)NC(=O)[C@H](C(C)C)NC(=O)[C@H](CC3CCCCC3)NC(=O)[C@H](CCN)NC(=O)[C@@H](CC(C)C)NC(=O)[C@H](C)N(C)C(=O)[C@H](Cc3ccc(OCC(=O)O)cc3)NC(=O)[C@H](Cc3ccc(-c4ccccc4)cc3)NC(=O)[C@H](C(C)C)NC2=O)c1 (stereo partly drawn) [Example 2309] ({CH2CO}-[Thr(3ξ)]Y(Carboxymethyl)D[Phe(3-Me)]V[Bip]Y(Carboxymethyl)[NMeA][dL][Dab][Cha]V[Thr(3ξ)]C[Dab][Aun]-OH; thioether N-14)
4,25.8 nM,CC(C)C[C@H]1NC(=O)[C@H](C)N(C)C(=O)[C@H](Cc2ccc(OCC(=O)O)cc2)NC(=O)[C@H](Cc2ccc(-c3ccccc3)cc2)NC(=O)[C@H](Cc2ccc(OCC(=O)O)cc2)NC(=O)[C@H](Cc2c[nH]c3ccccc23)NC(=O)[C@H](CC(=O)O)NC(=O)[C@H](Cc2ccc(OCC(=O)O)cc2)NC(=O)[C@H]([C@@H](C)O)NC(=O)CSC[C@@H](C(=O)N[C@@H](CCN)C(=O)NCCOCCOCC(=O)NCCCCCCCCCCC(=O)O)NC(=O)[C@H](CO)NC(=O)[C@H](C(C)C)NC(=O)[C@H](CC2CCCCC2)NC(=O)[C@H](CCN)NC1=O [Example 1391] ({CH2CO}-TY(Carboxymethyl)DWY(Carboxymethyl)[Bip]Y(Carboxymethyl)[NMeA][dL][Dab][Cha]VSC[Dab][AEEA][Aun]-OH; thioether N-14)
5,16.5 nM,CC[C@H](C)[C@@H]1NC(=O)[C@H](Cc2ccc(-c3ccccc3)cc2)NC(=O)[C@H](CC(C)C)NC(=O)[C@H](Cc2c[nH]c3ccccc23)NC(=O)[C@H](CC(=O)O)NC(=O)[C@H](Cc2ccc(C(=O)O)cc2)NC(=O)[C@H](Cc2ccc(OCC(=O)O)cc2)NC(=O)CSC[C@@H](C(=O)N[C@@H](CN)C(=O)NCCOCCOCC(=O)NCCCCCCCCCCC(=O)O)NC(=O)[C@H](CO)NC(=O)[C@H](C(C)C)NC(=O)[C@H](CC2CCCCC2)NC(=O)[C@H](CCN)NC(=O)[C@@H](CC(C)C)NC(=O)[C@H](C)N(C)C1=O [Example 1076] ({CH2CO}-Y(Carboxymethyl)[Phe(4-COOH)]DWL[Bip]I[NMeA][dL][Dab][Cha]VSC[Dap][AEEA][Aun]-OH; thioether N-14)

# Same assay, conditions: PE-labeled PD-L1-Ig 20 nM final, Jurkat-hPD-1 cells; read-out: Jurkat HPD1 PDL1 IC50
row,IC50,Structure (SMILES)
1,188 nM,CCC(C)[C@@H]1NC(=O)[C@H](Cc2ccc(-c3ccccc3)cc2)NC(=O)[C@H](C(C)C)NC(=O)[C@H](Cc2c[nH]c3ccccc23)NC(=O)[C@H](CC(=O)O)NC(=O)[C@H](Cc2ccc(C(=O)O)cc2)NC(=O)[C@H](Cc2cnc[nH]2)NC(=O)CSC[C@@H](C(=O)N[C@@H](CCN)C(=O)NCCOCCOCC(=O)N[C@@H](CCC(=O)N[C@H](CCC(=O)NCCCCCCCCCCCCCCC(=O)O)C(=O)O)C(=O)O)NC(=O)[C@H](CCC(=O)O)NC(=O)[C@H](C(C)(C)O)NC(=O)[C@H](CC2CCCCC2)NC(=O)[C@H](CCN)NC(=O)[C@@H](CC(C)C)NC(=O)[C@H](C)N(C)C1=O (stereo partly drawn) [Example 2634] ({CH2CO}-H[Phe(4-COOH)]DWV[Bip][Ile(3ξ)][NMeA][dL][Dab][Cha][Val(3-OH)]EC[Dab][AEEA][γGlu][d(γGlu)]-{NH(CH2)14COOH}; thioether N-14)
2,43.9 nM,CC(=O)NCCCC[C@@H]1NC(=O)[C@H](C(C)(C)O)NC(=O)[C@H](CC2CCCCC2)NC(=O)[C@H](CCN)NC(=O)[C@@H](CC(C)C)NC(=O)[C@H](C)N(C)C(=O)[C@H](CCC(N)=O)NC(=O)[C@H](Cc2ccc(-c3ccccc3)cc2)NC(=O)[C@H](Cc2ccc(C(=O)O)cc2)NC(=O)[C@H](Cc2cccc(C)c2)NC(=O)[C@H](CC(=O)O)NC(=O)[C@H](Cc2ccc(OCC(=O)O)cc2)NC(=O)[C@H](Cc2ccc(C(F)(F)F)cc2)NC(=O)CSC[C@@H](C(=O)N[C@@H](CCN)C(=O)NCCCCCCCCCCCCC(=O)O)NC1=O [Example 2619] ({CH2CO}-[Phe(4-CF3)]Y(Carboxymethyl)D[Phe(3-Me)][Phe(4-COOH)][Bip]Q[NMeA][dL][Dab][Cha][Val(3-OH)]K(Ac)C[Dab]-{NH(CH2)12COOH}; thioether N-14)
3,405 nM,Cc1cccc(C[C@@H]2NC(=O)[C@H](CC(=O)O)NC(=O)[C@H](Cc3ccc(OCC(=O)O)cc3)NC(=O)[C@H](C(C)O)NC(=O)CSC[C@@H](C(=O)N[C@@H](CCN)C(=O)NCCOCCOCC(=O)NCCCCCCCCCCCCCCC(=O)O)NC(=O)[C@H](CCC(=O)O)NC(=O)[C@H](C(C)C)NC(=O)[C@H](CC3CCCCC3)NC(=O)[C@H](CCN)NC(=O)[C@@H](CC(C)C)NC(=O)[C@H](C)N(C)C(=O)[C@H](Cc3ccc(OCC(=O)O)cc3)NC(=O)[C@H](Cc3ccc(-c4ccccc4)cc3)NC(=O)[C@H](Cc3ccc(C(=O)O)cc3)NC2=O)c1 (stereo partly drawn) [Example 2603] ({CH2CO}-[Thr(3ξ)]Y(Carboxymethyl)D[Phe(3-Me)][Phe(4-COOH)][Bip]Y(Carboxymethyl)[NMeA][dL][Dab][Cha]VEC[Dab][AEEA]-{NH(CH2)14COOH}; thioether N-14)
4,15.5 nM,CCC(C)[C@@H]1NC(=O)[C@H](Cc2ccc(-c3ccccc3)cc2)NC(=O)[C@H](C(C)C)NC(=O)[C@H](Cc2c[nH]c3ccccc23)NC(=O)[C@H](CC(=O)O)NC(=O)[C@H](Cc2ccc(C(=O)O)cc2)NC(=O)[C@H](Cc2cnc[nH]2)NC(=O)CSC[C@@H](C(=O)N[C@@H](CCN)C(=O)NCCOCCOCC(=O)NCCCCCCCCCCCCC(=O)O)NC(=O)[C@H](CCC(=O)O)NC(=O)[C@H](C(C)(C)O)NC(=O)[C@H](CC2CCCCC2)NC(=O)[C@H](CCN)NC(=O)[C@@H](CC(C)C)NC(=O)[C@H](C)N(C)C1=O (stereo partly drawn) [Example 2631] ({CH2CO}-H[Phe(4-COOH)]DWV[Bip][Ile(3ξ)][NMeA][dL][Dab][Cha][Val(3-OH)]EC[Dab][AEEA]-{NH(CH2)12COOH}; thioether N-14)

row,Structure (SMILES),IC50
1,CC(C)C[C@H]1NC(=O)[C@H](C)N(C)C(=O)[C@H](Cc2ccc(OCC(=O)O)cc2)NC(=O)[C@H](Cc2ccc(-c3ccccc3)cc2)NC(=O)[C@H](Cc2ccc(C(=O)O)cc2)NC(=O)[C@H](Cc2cccc(C(F)(F)F)c2)NC(=O)[C@H](CC(=O)O)NC(=O)[C@H](Cc2ccc(OCC(=O)O)cc2)NC(=O)[C@H](Cc2cnc[nH]2)NC(=O)CSC[C@@H](C(=O)N[C@@H](CCN)C(=O)NCCCCCCCCCCC(=O)O)NC(=O)[C@H](C(C)O)NC(=O)[C@H](C(C)C)NC(=O)[C@H](CC2CCCCC2)NC(=O)[C@H](CCN)NC1=O (stereo partly drawn) [Example 2580] ({CH2CO}-HY(Carboxymethyl)D[Phe(3-CF3)][Phe(4-COOH)][Bip]Y(Carboxymethyl)[NMeA][dL][Dab][Cha]V[Thr(3ξ)]C[Dab][Aun]-OH; thioether N-14),6.8 nM
